According to patent publication US11844350B2, “Plant growth regulation” (Syngenta Participations AG, priority 2017, dated 2023):

System: rice (Oryza sativa L.) varieties ADT45
Assay: Plant growth regulation field trial in rice, India (lodging, plant height, heat stress symptoms)
Type: in vivo
Method: Field trials were setup during the hot season in Annanagar and Kumbakonam in India. Local rice (Oryza sativa L.) varieties ADT45 was mechanically transplanted at four plants per hill with a plant spacing of 16 cm and a row spacing of 30 cm. All trials were performed in good level of water management. Fertilizer application, and weed, insect and disease control were carried out in accordance with the best local practice across the trial area. Commercial treated seeds were used (with no neonicotinoid compounds present).
The trial design was a randomized bloc design, with a plot size of 40 m^2 (12 rows, each […] and 10 m long); each trial had four replicates.
Overall trial quality was very high: there was no insect damage and no disease pressure or weeds; the plots were very homogenous. Heat stress level was low to medium with 5-10% empty spikelets in the untreated control.

COc1cccc(Nc2nc(F)nc3[nH]cnc23)c1 [Formula (Ia)]
Lodging (%) (10 g ai/ha, applied at panicle initiation (BBCH 30)): 29.0%
Lodging (%) (20 g ai/ha, applied at BBCH 30): 56.0%
Lodging compared to the untreated control (result in words): significantly reduces lodging
